Experiment [1] addresses Recombinant wild type LRRK2 protein (Homo sapiens (Human), UniProt Q5S007). In words: LRRK2 kinase activity, LanthaScreen TR-FRET assay (wild type). It is filed as biochemical. The conditions noted are these: LRRKtide 400 nM, 25 μM ATP, 60 min; read-out: LRRK2 WT IC50. In outline:
(§1)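 Recombinant human wild-type or G2019S LRRK2 phosphorylated fluorescein-labelled LRRKtide (ERM-based) with ATP and serially diluted compound for 60 min at room temperature.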

Experiment [2] concerns the target Recombinant G2019S-LRRK2 protein (Homo sapiens (Human), UniProt Q5S007, G2019S). In words: LRRK2 kinase activity, LanthaScreen TR-FRET assay (G2019S). The experiment is classed as biochemical. The conditions noted are these: LRRKtide 400 nM, 25 μM ATP, 60 min. In short, it runs like this: as §1

The structures appear in SMILES notation.

Chain of Recombinant wild type LRRK2 protein (Q5S007 whole entry): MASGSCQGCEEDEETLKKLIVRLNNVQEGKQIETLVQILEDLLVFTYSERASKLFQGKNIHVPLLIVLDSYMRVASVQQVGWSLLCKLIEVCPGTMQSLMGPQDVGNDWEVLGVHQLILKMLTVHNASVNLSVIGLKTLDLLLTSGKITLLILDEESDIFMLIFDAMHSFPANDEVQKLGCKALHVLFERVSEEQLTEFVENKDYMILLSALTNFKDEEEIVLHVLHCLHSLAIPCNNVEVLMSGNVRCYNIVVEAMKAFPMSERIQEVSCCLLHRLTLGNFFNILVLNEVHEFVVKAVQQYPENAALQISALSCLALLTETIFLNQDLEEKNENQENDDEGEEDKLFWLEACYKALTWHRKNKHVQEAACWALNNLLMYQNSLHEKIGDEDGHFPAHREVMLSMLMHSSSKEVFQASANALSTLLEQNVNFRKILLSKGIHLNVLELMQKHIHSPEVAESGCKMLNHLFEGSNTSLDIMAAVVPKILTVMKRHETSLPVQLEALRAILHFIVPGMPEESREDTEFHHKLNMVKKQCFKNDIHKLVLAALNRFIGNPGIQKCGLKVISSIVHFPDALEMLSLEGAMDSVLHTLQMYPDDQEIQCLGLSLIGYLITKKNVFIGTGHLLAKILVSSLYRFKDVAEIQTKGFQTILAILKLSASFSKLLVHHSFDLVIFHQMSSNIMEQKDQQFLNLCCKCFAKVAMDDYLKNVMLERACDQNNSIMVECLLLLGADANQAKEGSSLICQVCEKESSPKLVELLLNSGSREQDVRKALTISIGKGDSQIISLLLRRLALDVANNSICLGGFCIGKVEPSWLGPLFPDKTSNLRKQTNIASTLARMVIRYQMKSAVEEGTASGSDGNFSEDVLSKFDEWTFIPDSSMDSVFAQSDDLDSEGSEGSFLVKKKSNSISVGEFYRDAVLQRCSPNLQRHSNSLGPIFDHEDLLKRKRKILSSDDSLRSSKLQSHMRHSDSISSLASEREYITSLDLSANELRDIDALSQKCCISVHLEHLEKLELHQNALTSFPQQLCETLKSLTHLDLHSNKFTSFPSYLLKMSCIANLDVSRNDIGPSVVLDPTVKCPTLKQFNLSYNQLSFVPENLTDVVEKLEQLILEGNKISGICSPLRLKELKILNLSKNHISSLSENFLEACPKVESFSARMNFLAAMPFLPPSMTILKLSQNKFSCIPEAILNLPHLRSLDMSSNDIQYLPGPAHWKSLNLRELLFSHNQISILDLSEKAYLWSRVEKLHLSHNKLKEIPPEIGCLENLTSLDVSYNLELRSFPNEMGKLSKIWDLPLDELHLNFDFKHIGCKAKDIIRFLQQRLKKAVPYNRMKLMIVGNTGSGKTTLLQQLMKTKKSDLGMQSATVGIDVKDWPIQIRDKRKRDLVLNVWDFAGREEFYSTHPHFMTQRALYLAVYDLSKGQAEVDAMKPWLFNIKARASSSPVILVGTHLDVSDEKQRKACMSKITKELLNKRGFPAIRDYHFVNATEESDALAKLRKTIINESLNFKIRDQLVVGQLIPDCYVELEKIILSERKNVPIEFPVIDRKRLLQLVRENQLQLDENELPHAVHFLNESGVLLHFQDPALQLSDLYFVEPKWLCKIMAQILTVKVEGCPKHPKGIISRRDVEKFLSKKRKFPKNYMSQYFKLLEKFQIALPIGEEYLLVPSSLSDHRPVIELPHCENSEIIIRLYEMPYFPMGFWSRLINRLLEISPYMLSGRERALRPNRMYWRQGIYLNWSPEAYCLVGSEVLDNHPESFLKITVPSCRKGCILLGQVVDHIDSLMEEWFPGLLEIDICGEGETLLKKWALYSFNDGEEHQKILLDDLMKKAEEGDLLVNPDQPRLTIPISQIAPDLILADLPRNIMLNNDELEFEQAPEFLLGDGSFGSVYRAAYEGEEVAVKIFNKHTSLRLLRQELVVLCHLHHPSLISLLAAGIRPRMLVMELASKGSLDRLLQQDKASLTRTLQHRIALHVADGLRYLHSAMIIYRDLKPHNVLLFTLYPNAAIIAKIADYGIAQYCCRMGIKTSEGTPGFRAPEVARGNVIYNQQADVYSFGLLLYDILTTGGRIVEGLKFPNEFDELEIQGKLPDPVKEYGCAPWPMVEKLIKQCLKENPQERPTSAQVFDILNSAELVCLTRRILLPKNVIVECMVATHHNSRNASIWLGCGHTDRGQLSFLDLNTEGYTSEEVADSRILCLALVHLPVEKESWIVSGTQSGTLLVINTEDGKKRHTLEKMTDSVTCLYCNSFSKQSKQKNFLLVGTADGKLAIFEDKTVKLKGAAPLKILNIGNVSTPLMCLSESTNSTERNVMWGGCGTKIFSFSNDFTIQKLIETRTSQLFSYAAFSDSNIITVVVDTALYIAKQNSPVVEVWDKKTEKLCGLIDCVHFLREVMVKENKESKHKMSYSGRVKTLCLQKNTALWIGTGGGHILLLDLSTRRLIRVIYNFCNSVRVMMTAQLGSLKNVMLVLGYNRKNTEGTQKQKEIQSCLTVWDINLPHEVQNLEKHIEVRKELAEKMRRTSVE
Chain of Recombinant G2019S-LRRK2 protein (Q5S007 whole entry G2019S): as the sequence (Q5S007 whole entry) above, with G2019S counted along it

On to `COc1ccc(-c2n[nH]c3ccc(NC(=O)c4ncc(C#N)cc4C)cc23)cn1` [Example 52, 5-Cyano-N-(3-(6-methoxypyridin-3-yl)-1H-indazol-5-yl)-3-methylpicolinamide], for which the results for the IC50 in experiment [1] and in experiment [2] were 100 to 1000 nM and < 100 nM, respectively.

With `Cc1cc(C#N)cnc1C(=O)Nc1ccc2[nH]nc(-c3cc(C#N)cs3)c2c1` [Example 130, 5-Cyano-N-(3-(4-cyanothiophen-2-yl)-1H-indazol-5-yl)-3-methylpicolinamide], the IC50 in experiment [1] and in experiment [2] was < 100 nM throughout.

In the case of `Cn1cc(C#N)nc1C(=O)Nc1ccc2[nH]nc(-c3ccoc3)c2c1` [Example 124, 4-Cyano-N-(3-(furan-3-yl)-1H-indazol-5-yl)-1-methyl-1H-imidazole-2-carboxamide], the IC50 in experiment [1] and in experiment [2] was < 100 nM throughout.

Turning to `Cc1c(C(=O)Nc2ccc3[nH]nc(C4CC4)c3c2)nc(C(F)F)c(C#N)c1C` [Example 327, 5-Cyano-N-(3-cyclopropyl-1H-indazol-5-yl)-6-(difluoromethyl)-3,4-dimethylpicolinamide], the IC50 in experiment [1] and in experiment [2] was < 100 nM each time.

With `Cc1c(C#N)cnc(C(=O)Nc2cc3c(-c4cnco4)n[nH]c3cn2)c1C` [Example 238, 5-Cyano-3,4-dimethyl-N-(3-(oxazol-5-yl)-1H-pyrazolo[3,4-c]pyridin-5-yl)picolinamide], the IC50 in experiment [1] was 100 to 1000 nM; in experiment [2], < 100 nM.

Consider `N#Cc1ccc(C(=O)Nc2ccc3[nH]nc(-c4ccoc4)c3c2)c2ncccc12` [Example 142, 5-Cyano-N-(3-(furan-3-yl)-1H-indazol-5-yl)quinoline-8-carboxamide], for which the IC50 was 100 to 1000 nM in experiment [1] and < 100 nM in experiment [2].

As to `Cc1nc(C(=O)Nc2ccc3[nH]nc(-c4cncs4)c3c2)c(C)c(C)c1C#N` [Example 222, 5-Cyano-3,4,6-trimethyl-N-(3-(thiazol-5-yl)-1H-indazol-5-yl)picolinamide], the IC50 in experiment [1] and in experiment [2] was < 100 nM each time.

`N#Cc1ccc(C(=O)Nc2ccc3[nH]nc(-c4ccoc4)c3c2)c(Br)c1` [Example 2, 2-Bromo-4-cyano-N-(3-(furan-3-yl)-1H-indazol-5-yl)benzamide]: the IC50 in experiment [1] and in experiment [2] was < 100 nM throughout.

In the case of `Cc1cc(C#N)cnc1C(=O)Nc1ccc2[nH]nc(-c3cnco3)c2c1` [Example 111, 5-Cyano-3-methyl-N-(3-(oxazol-5-yl)-1H-indazol-5-yl)picolinamide], the IC50 is 100 to 1000 nM in experiment [1] and < 100 nM in experiment [2].

As to `N#Cc1cnc(C(=O)Nc2ccc3[nH]nc(-c4ccoc4)c3c2)s1` [Example 65, 5-Cyano-N-(3-(furan-3-yl)-1H-indazol-5-yl)thiazole-2-carboxamide], the IC50 in experiment [1] and in experiment [2] was < 100 nM in each case.

Take `Cc1cc(C#N)cnc1C(=O)Nc1ccc2[nH]nc(CCCN3CCCCC3)c2c1` [Example 323, 5-cyano-3-methyl-N-(3-(3-(piperidin-1-yl)propyl)-1H-indazol-5-yl)picolinamide]: the IC50 in experiment [1] and in experiment [2] was > 10000 nM throughout.

On to `Cc1c(C(=O)Nc2ccc3[nH]nc(C#N)c3c2)nc(Cl)c(C#N)c1C` [Example 290, 6-Chloro-5-cyano-N-(3-cyano-1H-indazol-5-yl)-3,4-dimethylpicolinamide], for which the IC50 in experiment [1] and in experiment [2] was < 100 nM throughout.

As to `Cc1cc(-c2n[nH]c3ccc(NC(=O)c4ncc(C#N)cc4C)cc23)on1` [Example 235, 5-Cyano-3-methyl-N-(3-(3-methylisoxazol-5-yl)-1H-indazol-5-yl)picolinamide], the half-inhibitory concentration (IC50) in experiment [1] and in experiment [2] was < 100 nM in each case.

On to `Cc1nc(C#N)n(C)c1C(=O)Nc1ccc2[nH]nc(-c3ccccc3)c2c1` [Example 43, 2-Cyano-1,4-dimethyl-N-(3-phenyl-1H-indazol-5-yl)-1H-imidazole-5-carboxamide], for which the IC50 is 100 to 1000 nM in experiment [1] and < 100 nM in experiment [2].

These data come from patent US11427558B1, “Indazoles and azaindazoles as LRRK2 inhibitors” (ESCAPE Bio, Inc., priority 2019, dated 2022).
